Experimental data: patent publication US20050255111A1, “Use of an inhibitor or antagonist against tissue factor” (priority 2002, published 2005)

Key:
TF = TF synthesis and secretion in cultured human islets (TF content by EIA); assay type: cell-based
Method: Islets were cultured for 24 h in CMRL-medium containing […] Nicotinamide, which is the standard medium used for islet culture. The medium was thereafter exchanged to CMRL-medium without Nicotinamid. After a baseline period of another 24 h, islets were handpicked for analysis of TF content. Culture was continued for 48 h with medium containing agents known to affect TF expression in monocytes and endothelial cells. These were, L-Arginin, Cyclosporin A, Enalapril, acetylcysteine and nicotinamid. The islets were harvested, the TF content analysed using a commercial EIA kit and the islets tested in the in vitro loop model.
Islets were cultured for 48 h in medium containing 0, 10, 25 and 50 mM Nicotinamid and the intracellular TF concentration assessed, see FIG. 6. The islets were also exposed to fresh human ABO compatible blood in the in vitro loop model. Samples were retrieved after 5, 15, 30 and 60 min and analysed for TAT, see FIG. 7.
Islets were cultured for 48 h in medium containing Enalapril (40 μg/ml), Cyclosporin A (10 μmol/L), L-Aginine (1 mmol/L), Nicotinamide (10 mmol/L) and the intracellular TF concentration assessed. The concentration of Tf is expressed as percentage of the untreated control, see FIG. 8.

IBMIR = IBMIR in vitro

SMILES | production of tissue factor in the islets (TF content) (TF; nicotinamide 0 to 50 mM, 48 h culture) | secretion of TF (TF; nicotinamide, dose dependent) | IBMIR in vitro (IBMIR)
NC(=O)c1cccnc1 [nicotinamide] | dose-dependently inhibited | inhibited | –
N=C(N)c1ccc(CNC(=O)[C@@H]2CCN2C(=O)[C@H](NCC(=O)O)C2CCCCC2)cc1 [Melagatran] | – | – | abrogated
